Test results: US20060189576A1, “Substituted vitamin d analogues and their therapeutic uses” (priority 2003, published 2006)
Read-outs that look alike come from different tables or passages of the source. Marks after values point to notes of the source that are not given here.

How the values were obtained:
HL-60 cells = assay: HL-60 cell differentiation (NBT reduction assay); assay type: cell-based; conditions: for IN VITRO STUDIES HL 60: potency to differentiate HL 60 cells, percentage activity vs 1α,25(OH)2D3 (=100%)
Experimental: To evaluate the effect on cell differentiation HL-60 cells were seeded at 4×10^4 cells/ml in 25 cm^2 Falcon tissue chambers using RPMI 1640 medium supplemented with 20% FCS and gentamycin (50 μg/ml) in a final volume of 5 ml. Cultures were maintained at 37° C. in a humidified atmosphere of 5% CO2 in air. […] After 4 days of culture, the dishes were shaken to lose adherent cells. Cells were washed twice in RPMI, counted and assayed for differentiation markers (NBT reduction assay). Superoxide production was measured as NBT reducing activity as described previously (Ostrem V. K et al. Proc Natl Acad Sci USA 84: 2610-2614, 1987). HL-60 cells at 1×10^6/ml were mixed with an equal volume of freshly prepared solution of phorbol 12-myristate 13-acetate (200 ng/ml) and […] and incubated for 30 min at 37° C. The percentage of cells containing black formazan deposits was determined using a hemacytometer.

[1] = for Femur calcium: NMRI mice; for IN VIVO STUDIES Osteocalcin serum: mice, daily intraperitoneal injection 7 consecutive days, percentage activity vs 1α,25(OH)2D3 (=100%); for IN VIVO STUDIES Calcium serum / IN VIVO STUDIES Calcium urine / Serum calcium in mice: mouse, ip, in vivo
Experimental: Eight weeks old, male NMRI mice were obtained from the Proefdierencentrum of Leuven (Belgium) and fed a vitamin D-replete diet (0.2% calcium, 1% phosphate, 2000 U vitamin D/kg; Hope Farms, Woerden, The Netherlands). […] The control group was injected with vehicle (arachis oil). The average weight of each group of 6 mice was determined at the beginning and at the end of the experiment. The following parameters were evaluated: serum calcium, serum osteocalcin, femur calcium and urinary calcium. Serum and urinary calcium were measured by a microcolorimetric assay (Sigma, St. Louis, Mo.). Femurs were removed and femur calcium content was measured in HCl-dissolved bone ash (obtained by heating for 24 h in an oven at 100° C.), using the same technique as for serum and urinary calcium.

hDBP = molecular target: T1, hDBP (Homo sapiens, UniProt P02774); assay: Affinity for human DBP: competition with [3H]1α,25(OH)2D3; assay type: binding; conditions: percentage activity (at 50% of the dose response) in comparison with 1α,25(OH)2D3 (=100%)
T1 sequence (P02774 17-474): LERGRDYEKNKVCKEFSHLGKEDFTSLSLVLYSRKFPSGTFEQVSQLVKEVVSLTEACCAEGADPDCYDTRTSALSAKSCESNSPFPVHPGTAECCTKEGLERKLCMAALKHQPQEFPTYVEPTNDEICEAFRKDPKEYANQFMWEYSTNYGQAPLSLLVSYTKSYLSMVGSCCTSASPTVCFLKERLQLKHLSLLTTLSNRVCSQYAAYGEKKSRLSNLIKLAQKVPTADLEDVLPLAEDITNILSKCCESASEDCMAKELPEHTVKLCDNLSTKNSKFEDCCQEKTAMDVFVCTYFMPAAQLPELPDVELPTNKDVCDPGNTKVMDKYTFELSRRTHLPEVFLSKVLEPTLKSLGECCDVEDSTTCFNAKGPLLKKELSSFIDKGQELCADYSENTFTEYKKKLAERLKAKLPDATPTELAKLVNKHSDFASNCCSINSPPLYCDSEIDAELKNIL
Experimental: Phase separation was then obtained by the addition of 0.5 ml of cold dextran-coated charcoal.

[2] = Primary prevention of osteoporosis in ovariectomized mice; assay type: in vivo, C3H female mice
Experimental: 12 week old C3H female mice are subjected to bilateral ovariectomy or sham surgery. The animals are treated with the analog or vehicle by oral gavage or intraperitoneally. Dosing is started 3 days after sugery and continued for 8-9 weeks.
(§1) Before the first treatment in vivo measurements are performed to determine bone mineral density (BMD), bone mineral content (BMC) of total body and spine by dual-energy X-ray absorptiometry (DXA). Urine and serum is collected to measure calcium levels together with collagen cross-links in urine and osteocalcin in serum. The animals are weighed regularly during the experimental period. After 4 weeks treatment urine and serum is again collected and biochemical parameters are determined. At the end of the experiment (8-9 weeks) urine is collected and DXA measurement is performed in vivo to determine BMD and BMC. After killing the animals tibiae and femora are dissected The following biochemical parameters are investigated: serum calcium, serum osteocalcin, urine calcium, urine collagen cross-links, femur calcium.
(§2) Tibiae are used for histomorphometric analysis and femurs for measurement of cortical and trabecular volumetric density and geometry by peripheral quantitative computed tomography (pQCT) ex vivo.

vitamin D receptor = molecular target: T2, vitamin D receptor (Sus scrofa, UniProt A3RGC1); conditions: percentage activity (at 50% of the dose response) in comparison with 1α,25(OH)2D3 (=100%)
T2 sequence (A3RGC1 1-427): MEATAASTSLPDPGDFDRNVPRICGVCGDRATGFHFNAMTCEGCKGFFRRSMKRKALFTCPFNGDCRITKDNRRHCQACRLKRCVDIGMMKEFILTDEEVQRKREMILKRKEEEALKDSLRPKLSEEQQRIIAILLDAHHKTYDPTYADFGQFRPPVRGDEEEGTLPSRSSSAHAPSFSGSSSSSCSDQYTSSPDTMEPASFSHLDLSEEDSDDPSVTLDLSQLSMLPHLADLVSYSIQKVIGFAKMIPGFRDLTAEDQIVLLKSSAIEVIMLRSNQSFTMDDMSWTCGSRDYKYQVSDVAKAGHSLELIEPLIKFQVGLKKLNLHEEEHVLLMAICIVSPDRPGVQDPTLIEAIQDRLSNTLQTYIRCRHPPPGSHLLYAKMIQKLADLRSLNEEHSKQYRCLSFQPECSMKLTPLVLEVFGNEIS
Experimental: The incubation was performed at 4° C. for 20 h and phase separation was obtained by addition of dextran-coated charcoal.

MCF-7 cells [3] = assay: MCF-7 cell proliferation ([3H]thymidine incorporation); assay type: cell-based; conditions: for IN VITRO STUDIES MCF-7: antiproliferative action, percentage activity vs 1α,25(OH)2D3 (=100%); for Antiproliferative activity on MCF-7 cells: percentage activity (at 50% of the dose response) vs 1α,25(OH)2D3 (=100%)
Experimental: To evaluate the effect of on cell proliferation, malignant MCF-7 cells were cultured in DMEM/nut. mix. […] Cultures were maintained at 37° C. in a humidified atmosphere of 5% CO2 in air. MCF-7 cells were seeded at 5×10^3 cells/well in the above described medium in 96-well microtiter plates in a final volume of 0.2 ml per well. Triplicate cultures were performed. […] Then, 1 μCi [^3H]thymidine was added to each well and cells were harvested after 4 h incubation with a Packard harvester and measured by the Packard Topcount System (Packard, Meriden, USA).

[4] = Secondary prevention or treatment of osteoporosis in ovariectomized mice; assay type: in vivo, C3H female mice
Experimental: 12 week old C3H female mice are subjected to bilateral ovariectomy or sham surgery. The animals are treated with the analog or vehicle by oral gavage or intraperitoneally. Dosing is started 4 weeks after sugery and continued for 4-10 weeks.
as §1, with “dual-energy,” for “dual-energy”, “determined and” for “determined. At the end of the experiment (8-9 weeks)”
as §2

[5] = background, well established; cited from earlier work
MCF-7 cells [6] = conditions: known superagonists; data published in J Bone Mineral Res 15 (2): 237-252 (2000); cited from earlier work
[7] = known superagonists; data published in J Bone Mineral Res 15 (2): 237-252 (2000); cited from earlier work

| Compound | IN VIVO STUDIES Calcium serum [1] | IN VIVO STUDIES Calcium urine [1] | Serum calcium in mice [1] | AFFINITY STUDIES DBP (hDBP) | AFFINITY STUDIES VDR (vitamin D receptor) | prodifferentiating effect (in words) (HL-60 cells; HL 60 cells) | IN VITRO STUDIES HL 60 (HL-60 cells) | IN VIVO STUDIES Osteocalcin serum [1] | antiproliferative effect (in words) (MCF-7 cells [3]; MCF-7 cells) | IN VITRO STUDIES MCF-7 (MCF-7 cells [3]) | Antiproliferative activity on MCF-7 cells (MCF-7 cells [3]) | also measured |
| --- | --- | --- | --- | --- | --- | --- | --- | --- | --- | --- | --- | --- |
| 14-epi-2α-methyl-19-nor-23-yn-1α,25-dihydroxyvitamin D3 [Compound 108] | 2% | 4% | 2% | 0.3% | 80% | very potent | 4000% | 4% | very potent | 12000% | 12000% | prodifferentiating activity, times that of 1α,25(OH)2D3 (HL-60 cells; HL 60 cells): 40 times; increase of calcium levels in bone compared to 0.1 μg/kg/d 1,25(OH)2D3 ([1]; 1 μg/kg/d, 7 consecutive days): 18%; increase of calcium levels in bone compared to 0.2 μg/kg/d 1,25(OH)2D3 ([1]; 1 μg/kg/d, 7 consecutive days): 14%; increase of calcium levels in bone compared to 0.4 μg/kg/d 1,25(OH)2D3 ([1]; 1 μg/kg/d, 7 consecutive days): 20%; increase of calcium levels in bone compared to vehicle treated mice ([1]; 1 μg/kg/d, 7 consecutive days): 10%; Femur calcium ([1]; 0.4 μg/kg/d intraperitoneally, 7 consecutive days): 9.57 ± 0.26 mg; Femur calcium ([1]; 1 μg/kg/d intraperitoneally, 7 consecutive days): 10.52 ± 0.43*^,$ mg; serum calcium or urinary calcium levels ([2]; after at least four weeks, more particularly 8 weeks of treatment): not significantly increased; BMD, BMC and femur calcium ([2]; ovariectomized mice, dosing from 3 days after surgery for 8-9 weeks): increase; antiproliferative activity, times that of 1α,25(OH)2D3 (MCF-7 cells [3]; MCF-7 cells): 120 times; serum calcium or urinary calcium levels ([4]; after four weeks, more particularly 8 weeks of treatment): not significantly increased; BMD, BMC and femur calcium concentration ([4]; ovariectomized mice, dosing from 4 weeks after surgery, compared to levels prior to treatment): increase |
| C[C@H](CCCC(C)(C)O)[C@H]1CC[C@H]2/C(=C/C=C3C[C@@H](O)C[C@H](O)C3)CCC[C@]12C [19-nor-1α,25-dihydroxyvitamin D3] |  |  |  |  |  |  |  |  |  |  |  | calcemic effect, % of that of 1α,25(OH)2D3 [5]: 10% |
| CCC1C(O)CC(=CC=C2CCCC3(C)C2CCC3C(C)CC#CC(C)(C)O)CC1O (stereo not drawn) [Compound 111, 2β-ethyl-19-nor-23-yne-1α,25(OH)2D3] | 0.4% | 0.8% | 0.4% | 0.5% | 9% |  | 80% | 0.8% |  | 700% | 700% |  |
| CCC1C(O)CC(=CC=C2CCCC3(C)C2CCC3C(C)CC#CC(C)(C)O)CC1O (stereo not drawn) [Compound 112, 2α-ethyl-19-nor-23-yne-1α,25(OH)2D3] | 1.6% | 0.8% |  | 0.9% | 55% | very potent | 300% | 3% | very potent | 2000% |  | enhancement of antiproliferative effects on MCF-7 cells on introduction of the 23-yne side chain (MCF-7 cells [3]; compared with 2α-ethyl-19-nor-1α,25(OH)2D3 (110)): 3 fold |
| C=C1/C(=C\C=C2/CCC[C@]3(C)[C@@H]([C@H](C)/C=C/[C@@H](O)C4CC4)CC[C@@H]23)C[C@@H](O)C[C@@H]1O [MC 903] |  |  |  |  |  |  |  |  |  |  |  | Antiproliferative activity on MCF-7 cells (MCF-7 cells [6]): 100-200%; Serum calcium in mice [7]: 1% |
| C=C1/C(=C\C=C2/CCC[C@]3(C)[C@@H]([C@H](C)OCCC(C)(C)O)CC[C@@H]23)C[C@@H](O)C[C@@H]1O [OCT] |  |  |  |  |  |  |  |  |  |  |  | Antiproliferative activity on MCF-7 cells (MCF-7 cells [6]): 100-150%; Serum calcium in mice [7]: 0.3% |

Further lines, with some results ahead:

| IN VIVO STUDIES Calcium serum [1] | IN VIVO STUDIES Calcium urine [1] | Serum calcium in mice [1] | AFFINITY STUDIES DBP (hDBP) | AFFINITY STUDIES VDR (vitamin D receptor) | Compound | prodifferentiating effect (in words) (HL-60 cells; HL 60 cells) | IN VITRO STUDIES HL 60 (HL-60 cells) | IN VIVO STUDIES Osteocalcin serum [1] | antiproliferative effect (in words) (MCF-7 cells [3]; MCF-7 cells) | IN VITRO STUDIES MCF-7 (MCF-7 cells [3]) | Antiproliferative activity on MCF-7 cells (MCF-7 cells [3]) | also measured |
| --- | --- | --- | --- | --- | --- | --- | --- | --- | --- | --- | --- | --- |
| 0.4% | 0.4% |  | 3% | 8% | CCC1C(O)CC(=CC=C2CCCC3(C)C2CCC3C(C)CCCC(C)(C)O)CC1O (stereo not drawn) [Compound 113] |  | 10% | 0.4% |  | 75% |  |  |
| 1% | 1% |  | 40% | 30% | CCC1C(O)CC(=CC=C2CCCC3(C)C2CCC3C(C)CCCC(C)(C)O)CC1O (stereo not drawn) [Compound 114, 2α-ethyl-14-epi-19-nor-1α,25(OH)2D3] |  | 80% | 1% |  | 150% |  |  |
| <<0.1% | <0.1% | <<0.1% | 0.2% | 9% | CCC1C(O)CC(=CC=C2CCCC3(C)C2CCC3C(C)CC#CC(C)(C)O)CC1O (stereo not drawn) [Compound 115, 2β-ethyl-14-epi-19-nor-23-yne-1α,25(OH)2D3] |  | 80% | 0.1% |  | 600% | 600% |  |
| 0.2% |  | 0.2% | 0.1% | 65% | CCC1C(O)CC(=CC=C2CCCC3(C)C2CCC3C(C)CC#CC(C)(C)O)CC1O (stereo not drawn) [Compound 116, 2α-ethyl-14-epi-19-nor-23-yne-1α,25(OH)2D3] | very potent | 550% | 0.2% | very potent | 3000% | 3000% |  |
| <0.25% | <0.25% |  | 0% | 40% | CC(CC#CC(C)(C)O)C1CCC2C(=CC=C3CC(O)C(C)C(O)C3)CCCC21C (stereo not drawn) [Compound 117, 3,14-bis-epi-2α-methyl-19-nor-23-yn-1α,25-dihydroxyvitamin-D3] | very potent | 400% |  | very potent |  |  |  |
